Experimental data from patent US20100273748A1, “ANTIMICROBIAL THERAPY” (priority 2006, published 2010).

Tested on: CD14
Test: qPCR of CD14 mRNA in cultured keratinocytes
Type: cell-based, human
Conditions: 24 hours
Description: Cell culture and stimuli. Human keratinocytes were grown in serum-free EpiLife® cell culture media (Cascade Biologics; Portland, Oreg.) containing 0.06 mM Ca2+ and 1× EpiLife® defined growth supplement (EDGS) at 37° C. under standard tissue culture conditions. Stock cultures were maintained for up to five passages in this media with the addition of 50 U/mL penicillin and 50 μg/mL streptomycin. HaCaT keratinocytes were cultured in DMEM (Sigma, St. Louis, Mo.) with 10% FCS. Cells at 50-70% confluence were stimulated in fresh medium after preincubation with 1,25(OH)2 vitamin D3 (1,25D3; 0.1-100 nM, 4-24 h; Sigma). Alternatively, NHEK were stimulated in the presence of 1,25D3 (0.1-100 nM). Stimuli included TLR2,6 ligands Malp-2 (0.001-0.5 μg/ml; Alexis Biochemicals, Carlsbad, Calif.), FSL-1 (1-2 μg/ml, Invivogen, San Diego, Calif.) and zymosan (50 μg/ml; Invivogen), as well as flagellin (50 ng/ml; Alexis), LPS (1 μg/ml; Sigma), lipoteichoic acid (LTA; 10 μg/ml; Sigma), 19 kDA lipopeptide (10 μg/ml, a kind gift from S. Krutzik, Division of Dermatology, UCLA), CpG DNA (10 μg/ml; Sigma), Ca2+ (1.7 mM), LPS (1 μg/ml; Sigma), TNFα (20 ng/ml; Chemicon Temecula, Calif.) and TGFβ1 (0.1-1 μg/ml; R&D Systems, Minneapolis, Minn.). A TLR2 blocking antibody (αTLR2; clone TL2.1, 5 μg/ml, eBioscience, San Diego, Calif.) was utilized to investigate the role of TLR2 signaling. Furthermore, keratinocytes were pretreated with a vitamin D receptor antagonist (VDR-antagonist ZK159222 Schering AG; 10^-7M) or the CYP inhibitor itraconazole (ITRA; 10^-7M) before stimulation with TGFβ in the presence of 25OH vitamin D3 (25D3, 10 nM, Sigma).
Real-time RT-PCR (qPCR). RNA was extracted from cells, epidermal constructs or tissue using Trizol® and 1 μg RNA was reverse transcribed using iScript® (BioRad, Hercules, Calif.). Expression of cathelicidin and GAPDH was analysed by real-time RT-PCR. Predeveloped Taqman® assay probes (ABI, Foster City, Calif.) were used for the analyses of the expression of CYP24A1 (24-hydroxylase), CYP27B1 (1α-hydroxylase), CD14, CD36, TLR1, TLR2, TLR4, TLR6 and murine CD14. All analyses were performed in triplicate from 2-5 independent experiments in an ABI Prism® 7000 Sequence Detection System. Fold induction relative to the vehicle treated control in in vitro experiments was calculated using the comparative Ct method, where ΔΔCt is ΔCt(stimulant)-ΔCt(vehicle), ΔCt is Ct(gene)-Ct(GAPDH) and Ct is the cycle at which an arbitrary detection threshold is crossed. For quantification of transcript abundance in tissue samples target gene expression was normalized to GAPDH and compared to non-treated or non-injured skin.

For `C=C1/C(=C\C=C2/CCC[C@]3(C)[C@@H]([C@H](C)CCCC(C)(C)O)CC[C@@H]23)C[C@@H](O)C[C@@H]1O` [1,25D3, 1,25(OH)2 vitamin D3], the “CD14 mRNA expression” value (1,25D3 100 nM, keratinocyte monolayers) was “increases expression” and the CD14 transcript abundance (1,25D3 10^−8M) was “strongly upregulated”.
